Measured values from ChEMBL document CHEMBL3994622, “Design and synthesis of new RAF kinase-inhibiting antiproliferative quinoline derivatives. Part 2: Diarylurea derivatives” (Eur J Med Chem, 2017).

What was measured:
[1] = tested on: SR; assay: Growth inhibition of human SR cells assessed as cell growth at 0.005 uM incubated for 48 hrs by sulforhodamine B assay relative to control; format: functional; conditions: read-out: Activity
[2] = tested on: NCI-H460; assay: Growth inhibition of human NCI-H460 cells assessed as cell growth at 0.005 uM incubated for 48 hrs by sulforhodamine B assay relative to control; format: functional; conditions: NCI-H460, 48 h, read-out: Activity
[3] = tested on: SNB-19; assay: Growth inhibition of human SNB19 cells assessed as cell growth at 0.005 uM incubated for 48 hrs by sulforhodamine B assay relative to control; format: functional; conditions: SNB-19, 48 h, read-out: Activity
[4] = tested on: MCF7; assay: Growth inhibition of human MCF7 cells assessed as cell growth at 0.005 uM incubated for 48 hrs by sulforhodamine B assay relative to control; format: functional; conditions: MCF7, 48 h, read-out: Activity
[5] = tested on: NCI-H226; assay: Growth inhibition of human NCI-H226 cells assessed as cell growth at 0.05 uM incubated for 48 hrs by sulforhodamine B assay relative to control; format: functional; conditions: NCI-H226, 48 h, read-out: Activity
[6] = tested on: HCT-15; assay: Growth inhibition of human HCT15 cells assessed as cell growth at 0.05 uM incubated for 48 hrs by sulforhodamine B assay relative to control; format: functional; conditions: HCT-15, 48 h, read-out: Activity
[7] = tested on: KM12; assay: Growth inhibition of human KM12 cells assessed as cell growth at 0.05 uM incubated for 48 hrs by sulforhodamine B assay relative to control; format: functional; conditions: KM12, 48 h, read-out: Activity
[8] = tested on: DU-145; assay: Growth inhibition of human DU145 cells assessed as cell growth at 0.05 uM incubated for 48 hrs by sulforhodamine B assay relative to control; format: functional; conditions: DU-145, 48 h, read-out: Activity
[9] = tested on: MOLT-4; assay: Growth inhibition of human MOLT4 cells assessed as cell growth at 0.5 uM incubated for 48 hrs by sulforhodamine B assay relative to control; format: functional; conditions: MOLT-4, 48 h, read-out: Activity
[10] = tested on: HOP-62; assay: Growth inhibition of human HOP62 cells assessed as cell growth at 0.5 uM incubated for 48 hrs by sulforhodamine B assay relative to control; format: functional; conditions: HOP-62, 48 h, read-out: Activity
[11] = tested on: SF-539; assay: Growth inhibition of human SF539 cells assessed as cell growth at 0.5 uM incubated for 48 hrs by sulforhodamine B assay relative to control; format: functional; conditions: SF-539, 48 h, read-out: Activity
[12] = tested on: M14; assay: Growth inhibition of human M14 cells assessed as cell growth at 0.5 uM incubated for 48 hrs by sulforhodamine B assay relative to control; format: functional; conditions: M14, 48 h, read-out: Activity
[13] = tested on: MDA-MB-435; assay: Growth inhibition of human MDA-MB-435 cells assessed as cell growth at 0.5 uM incubated for 48 hrs by sulforhodamine B assay relative to control; format: functional; conditions: MDA-MB-435, 48 h, read-out: Activity
[14] = tested on: SK-MEL-28; assay: Growth inhibition of human SK-MEL-28 cells assessed as cell growth at 0.5 uM incubated for 48 hrs by sulforhodamine B assay relative to control; format: functional; conditions: SK-MEL-28, 48 h, read-out: Activity
[15] = tested on: IGROV-1; assay: Growth inhibition of human IGROV1 cells assessed as cell growth at 0.5 uM incubated for 48 hrs by sulforhodamine B assay relative to control; format: functional; conditions: IGROV-1, 48 h, read-out: Activity
[16] = tested on: OVCAR-5; assay: Growth inhibition of human OVCAR5 cells assessed as cell growth at 0.5 uM incubated for 48 hrs by sulforhodamine B assay relative to control; format: functional; conditions: OVCAR-5, 48 h, read-out: Activity
[17] = tested on: A498; assay: Growth inhibition of human A498 cells assessed as cell growth at 0.5 uM incubated for 48 hrs by sulforhodamine B assay relative to control; format: functional; conditions: A498, 48 h, read-out: Activity
[18] = tested on: RXF 393; assay: Growth inhibition of human RXF393 cells assessed as cell growth at 0.5 uM incubated for 48 hrs by sulforhodamine B assay relative to control; format: functional; conditions: RXF 393, 48 h, read-out: Activity
[19] = tested on: T47D; assay: Growth inhibition of human T47D cells assessed as cell growth at 0.5 uM incubated for 48 hrs by sulforhodamine B assay relative to control; format: functional; conditions: read-out: Activity
[20] = tested on: HL-60(TB); assay: Growth inhibition of human HL-60(TB) cells assessed as cell growth at 5 uM incubated for 48 hrs by sulforhodamine B assay relative to control; format: functional; conditions: HL-60, 48 h, read-out: Activity
[21] = tested on: K562; assay: Growth inhibition of human K562 cells assessed as cell growth at 5 uM incubated for 48 hrs by sulforhodamine B assay relative to control; format: functional; conditions: K562, 48 h, read-out: Activity
[22] = tested on: RPMI-8226; assay: Growth inhibition of human RPMI8226 cells assessed as cell growth at 5 uM incubated for 48 hrs by sulforhodamine B assay relative to control; format: functional; conditions: RPMI-8226, 48 h, read-out: Activity
[23] = tested on: NCI-H23; assay: Growth inhibition of human NCI-H23 cells assessed as cell growth at 5 uM incubated for 48 hrs by sulforhodamine B assay relative to control; format: functional; conditions: NCI-H23, 48 h, read-out: Activity
[24] = tested on: COLO 205; assay: Growth inhibition of human COLO205 cells assessed as cell growth at 5 uM incubated for 48 hrs by sulforhodamine B assay relative to control; format: functional; conditions: COLO 205, 48 h, read-out: Activity
[25] = tested on: SW-620; assay: Growth inhibition of human SW620 cells assessed as cell growth at 5 uM incubated for 48 hrs by sulforhodamine B assay relative to control; format: functional; conditions: SW-620, 48 h, read-out: Activity
[26] = tested on: T47D; assay: Growth inhibition of human T47D cells assessed as cell growth at 5 uM incubated for 48 hrs by sulforhodamine B assay relative to control; format: functional; conditions: read-out: Activity
[27] = tested on: A549; assay: Growth inhibition of human A549/ATCC cells assessed as cell growth at 50 uM incubated for 48 hrs by sulforhodamine B assay relative to control; format: functional; conditions: A549, 48 h, read-out: Activity
[28] = tested on: NCI-H23; assay: Growth inhibition of human NCI-H23 cells assessed as cell growth at 50 uM incubated for 48 hrs by sulforhodamine B assay relative to control; format: functional; conditions: NCI-H23, 48 h, read-out: Activity
[29] = tested on: NCI-H322M; assay: Growth inhibition of human NCI-H322M cells assessed as cell growth at 50 uM incubated for 48 hrs by sulforhodamine B assay relative to control; format: functional; conditions: read-out: Activity
[30] = tested on: BT-549; assay: Growth inhibition of human BT549 cells assessed as cell growth at 50 uM incubated for 48 hrs by sulforhodamine B assay relative to control; format: functional; conditions: BT-549, 48 h, read-out: Activity
[31] = target: Mitogen-activated protein kinase 1 (Homo sapiens) (UniProt P28482); assay: Inhibition of human ERK2 at 10 uM using myelin basic protein as substrate in presence of [33P]ATP by Hotspot assay relative to control
[32] = target: Mitogen-activated protein kinase 14 (Homo sapiens) (UniProt Q16539); assay: Inhibition of human MAPK p38allpha at 10 uM using myelin basic protein as substrate in presence of [33P]ATP by Hotspot assay relative to control
[33] = tested on: BT-549; assay: Growth inhibition of human BT549 cells assessed as cell growth at 30 uM incubated for 48 hrs by sulforhodamine B assay relative to control; format: functional; conditions: BT-549, 48 h, read-out: Activity

Chain of Mitogen-activated protein kinase 14 (Homo sapiens) (Q16539 whole entry): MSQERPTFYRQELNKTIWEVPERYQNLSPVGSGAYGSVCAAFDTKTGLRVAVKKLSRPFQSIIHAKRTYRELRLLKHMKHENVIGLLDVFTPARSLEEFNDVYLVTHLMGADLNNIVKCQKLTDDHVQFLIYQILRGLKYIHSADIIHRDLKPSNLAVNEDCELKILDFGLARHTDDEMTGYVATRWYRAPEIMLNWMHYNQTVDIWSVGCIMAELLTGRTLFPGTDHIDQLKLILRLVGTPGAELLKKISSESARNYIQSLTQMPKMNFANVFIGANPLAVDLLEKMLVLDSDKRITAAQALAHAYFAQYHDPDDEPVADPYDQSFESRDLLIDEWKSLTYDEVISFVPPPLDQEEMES
Chain of Mitogen-activated protein kinase 1 (Homo sapiens) (P28482 whole entry): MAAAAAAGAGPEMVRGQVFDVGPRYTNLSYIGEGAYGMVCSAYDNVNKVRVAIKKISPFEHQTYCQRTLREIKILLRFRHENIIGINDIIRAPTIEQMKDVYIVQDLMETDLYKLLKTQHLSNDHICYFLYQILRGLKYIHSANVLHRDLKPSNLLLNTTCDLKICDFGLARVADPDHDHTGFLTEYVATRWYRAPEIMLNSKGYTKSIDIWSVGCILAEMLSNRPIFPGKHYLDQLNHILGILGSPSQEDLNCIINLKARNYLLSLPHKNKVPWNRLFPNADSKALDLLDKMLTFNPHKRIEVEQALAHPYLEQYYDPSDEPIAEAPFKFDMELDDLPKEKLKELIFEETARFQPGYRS

`COc1cc2cc(Oc3ccc(NC(=O)Nc4cccc(C(F)(F)F)c4)cc3)c(C)nc2cc1OC` showed a growth at 0.005 µM [1] of 93%, a growth at 0.005 µM [2] of 96% and a growth at 0.005 µM [3] of 92%. For the same molecule, the growth at 0.005 µM [4] was 90%, the growth at 0.05 µM [5] was 104% and the growth at 0.05 µM [6] was 94%. For the same molecule, the growth at 0.05 µM [7] was 89%, the growth at 0.05 µM [8] was 94% and the growth at 0.5 µM [9] was 95%. It also gave a growth at 0.5 µM [10] of 100%, a growth at 0.5 µM [11] of 104% and a growth at 0.5 µM [12] of 90%. For the same molecule, the growth at 0.5 µM [13] was 89%, the growth at 0.5 µM [14] was 92% and the growth at 0.5 µM [15] was 113%. It also gave a growth at 0.5 µM [16] of 119%, a growth at 0.5 µM [17] of 85% and a growth at 0.5 µM [18] of 103%. It also gave a growth at 0.5 µM [19] of 94%, a growth at 5 µM [20] of -13% and a growth at 5 µM [21] of 13%. For the same molecule, the growth at 5 µM [22] was -25%, the growth at 5 µM [23] was 9% and the growth at 5 µM [24] was -48%. It also gave a growth at 5 µM [25] of 20%, a growth at 5 µM [26] of 7% and a growth at 50 µM [27] of -72%. The growth at 50 µM [28] was -42%, the growth at 50 µM [29] was -29% and the growth at 50 µM [30] was -69%.

Molecule `COc1cc2cc(Oc3ccc(NC(=O)Nc4ccc(Cl)c(C(F)(F)F)c4)cc3)c(C)nc2cc1OC` has an inhibition [31] of 1.04%, an inhibition [32] of 56.4% and a growth at 30 µM [33] of -65%.
